Measurements published in patent US20080248486A1, “Type Pept1 Protein Assay” (Iongate Biosciences GmbH, priority 2004, published 2008).

How the values were obtained:
peptide transporter = conditions: Meredith et al. 1998; cited from earlier work
PepT1 [1] = biological target: T1, PepT1 (Homo sapiens, UniProt P46059); assay: Activity measurement with glibenclamide on protein-loaded sensor chip (SurfE2R system), current amplitude on change from non-activating to activating solution; type: biochemical; design: expressed in transfected cells; host or cells: CHO cells (plasma membrane preparation); conditions: 100 μM glibenclamide in both activating and non-activating solution; CHO plasma membrane preparation on sensor chip; FIG. 1
T1 sequence (P46059 1-708): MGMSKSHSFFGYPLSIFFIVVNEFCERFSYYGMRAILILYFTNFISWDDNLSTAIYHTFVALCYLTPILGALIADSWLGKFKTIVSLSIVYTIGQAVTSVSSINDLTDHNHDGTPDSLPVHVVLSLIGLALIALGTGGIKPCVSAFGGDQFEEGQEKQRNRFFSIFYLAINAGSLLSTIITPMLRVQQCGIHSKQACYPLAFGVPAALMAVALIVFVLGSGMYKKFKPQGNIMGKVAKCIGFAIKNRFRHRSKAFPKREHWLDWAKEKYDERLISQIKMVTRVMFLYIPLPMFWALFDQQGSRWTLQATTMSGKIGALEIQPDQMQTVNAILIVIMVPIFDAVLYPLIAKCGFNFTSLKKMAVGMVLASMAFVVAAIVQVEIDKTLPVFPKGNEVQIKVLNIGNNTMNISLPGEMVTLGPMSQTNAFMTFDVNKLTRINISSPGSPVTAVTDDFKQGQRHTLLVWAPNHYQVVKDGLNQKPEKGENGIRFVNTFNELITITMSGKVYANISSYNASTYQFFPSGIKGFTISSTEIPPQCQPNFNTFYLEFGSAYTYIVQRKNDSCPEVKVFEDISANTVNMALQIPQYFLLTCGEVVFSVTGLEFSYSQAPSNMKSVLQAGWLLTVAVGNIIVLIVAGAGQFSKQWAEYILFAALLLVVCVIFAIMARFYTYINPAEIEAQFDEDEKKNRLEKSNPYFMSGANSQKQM
Experimental: The measurements were carried out as above, although both solutions contained activating and non-activating solution and additionally 100 μM glibenclamide.

PepT1 [2] = biological target: T1, PepT1; design: host or cells: oocytes; conditions: oocytes; cited from earlier work
[3] = Solubility of glibenclamide; type: physicochemical

NCc1ccc(C(=O)O)cc1 [4-aminomethyl benzoic acid]
Affinity to the transporter (peptide transporter): only a slight affinity

COc1ccc(Cl)cc1C(=O)NCCc1ccc(S(=O)(=O)NC(=O)NC2CCCCC2)cc1 [glibenclamide]
Effect on current amplitude (PepT1 transport current I(t)) (PepT1 [1]): inhibition of the current amplitude
IC50 (PepT1 [2]): ~100 µM
Solubility [3]: poor solubility
